Experimental data: publication PMC11541931, “The structure and function of P5A-ATPases” (Nature Communications, 2024)

Target: T1, CtSpf1 (Thermochaetoides thermophila, UniProt G0S4Z4)
T1 construct: gene CTHT_0032200; full length, last two C-terminal arginines removed; C-terminal TEV site-GGGGS-GFP-His10, tag kept; made in S. cerevisiae PAP1500; in nanodiscs
Assay: cryo-EM structure, […] A
Conditions: 1 mM ADP with 2 mM AlF4-, Mg2+; MSP1E3D1 nanodisc, pH 7.5; nucleotide-binding site, E1P-ADP state

T1 sequence (G0S4Z4 entry or part of it): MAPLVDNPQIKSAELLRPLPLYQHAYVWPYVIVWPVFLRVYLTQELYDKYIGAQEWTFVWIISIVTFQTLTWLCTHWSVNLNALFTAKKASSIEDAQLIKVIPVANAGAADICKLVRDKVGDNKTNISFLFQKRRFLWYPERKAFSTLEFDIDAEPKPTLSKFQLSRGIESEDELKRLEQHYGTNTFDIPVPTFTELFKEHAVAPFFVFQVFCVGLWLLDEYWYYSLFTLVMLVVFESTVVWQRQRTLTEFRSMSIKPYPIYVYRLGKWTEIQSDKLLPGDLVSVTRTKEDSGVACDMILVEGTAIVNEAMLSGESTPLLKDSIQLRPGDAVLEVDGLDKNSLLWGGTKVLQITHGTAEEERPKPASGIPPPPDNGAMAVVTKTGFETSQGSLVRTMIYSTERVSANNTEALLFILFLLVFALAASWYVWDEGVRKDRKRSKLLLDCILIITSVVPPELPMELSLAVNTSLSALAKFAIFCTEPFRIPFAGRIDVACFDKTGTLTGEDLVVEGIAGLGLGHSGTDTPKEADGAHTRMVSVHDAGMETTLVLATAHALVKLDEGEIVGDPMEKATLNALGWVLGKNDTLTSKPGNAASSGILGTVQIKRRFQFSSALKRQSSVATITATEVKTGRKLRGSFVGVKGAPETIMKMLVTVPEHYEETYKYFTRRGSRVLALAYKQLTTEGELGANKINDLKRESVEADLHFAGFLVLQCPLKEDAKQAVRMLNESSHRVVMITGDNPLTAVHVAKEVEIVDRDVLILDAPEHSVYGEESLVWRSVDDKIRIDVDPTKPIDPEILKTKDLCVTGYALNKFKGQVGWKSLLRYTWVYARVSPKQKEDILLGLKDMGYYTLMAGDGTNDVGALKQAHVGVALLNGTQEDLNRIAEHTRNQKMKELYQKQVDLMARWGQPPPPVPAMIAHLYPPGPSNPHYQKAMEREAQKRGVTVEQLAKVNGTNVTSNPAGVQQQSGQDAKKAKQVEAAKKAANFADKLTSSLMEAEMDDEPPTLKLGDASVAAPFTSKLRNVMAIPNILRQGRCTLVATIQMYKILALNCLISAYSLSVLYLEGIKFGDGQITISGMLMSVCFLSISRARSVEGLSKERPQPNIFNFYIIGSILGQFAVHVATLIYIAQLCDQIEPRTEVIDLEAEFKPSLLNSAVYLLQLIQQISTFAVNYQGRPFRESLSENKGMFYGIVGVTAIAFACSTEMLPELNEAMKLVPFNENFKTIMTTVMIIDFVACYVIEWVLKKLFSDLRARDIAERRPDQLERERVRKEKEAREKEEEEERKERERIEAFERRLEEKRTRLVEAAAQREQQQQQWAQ

Nc1ncnc2c1ncn2[C@@H]1O[C@H](COP(=O)(O)OP(=O)(O)O)[C@@H](O)[C@H]1O [ADP]
cryo-EM structure, 3.4 A: We retrieved two separate maps with ADP-AlF4^− bound
